Measured values from patent US12378224B2 (Dong-A Socio Holdings Co., Ltd., priority 2016, dated 2025).

Target: human MER (528-end) (Homo sapiens (Human), UniProt Q12866)
Assay: HTRF Kinase Activity Biochemical Assay (KinEASE-TK)
Conditions: 10 uM ATP
Method in brief: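 Recombinant human MER (528-end) phosphorylated biotin-TK peptide substrate, 1 h at room temperature. Reaction stopped with detection buffer containing 0.375 nM Eu3+-cryptate anti-TK antibody and 0.062 uM streptavidin-XL665, 1 h further. Activity taken as HTRF ratio 665/620 nm ×10,000, 340 nm excitation.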

human MER (528-end), sequence (Q12866 528-999 limits assumed): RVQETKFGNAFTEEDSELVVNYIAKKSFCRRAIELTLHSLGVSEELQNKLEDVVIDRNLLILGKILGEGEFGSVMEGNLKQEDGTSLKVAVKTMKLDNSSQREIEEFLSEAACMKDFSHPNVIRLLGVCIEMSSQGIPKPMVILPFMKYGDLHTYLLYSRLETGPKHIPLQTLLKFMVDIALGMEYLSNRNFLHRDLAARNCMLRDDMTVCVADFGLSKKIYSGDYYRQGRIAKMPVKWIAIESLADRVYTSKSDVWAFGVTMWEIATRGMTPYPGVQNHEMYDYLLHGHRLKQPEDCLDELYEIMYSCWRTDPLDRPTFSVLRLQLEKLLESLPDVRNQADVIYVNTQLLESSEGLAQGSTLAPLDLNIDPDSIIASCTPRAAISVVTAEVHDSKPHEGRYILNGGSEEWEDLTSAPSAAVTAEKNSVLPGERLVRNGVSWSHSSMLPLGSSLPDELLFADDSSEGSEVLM

| Structure (SMILES) | IC50 [nM] |
| --- | --- |
| CC(C)Cn1cc(-c2cnc(N)c(C(=O)N[C@@H]3CCN(Cc4ccccc4Cl)C3)c2)cn1 [Example 632, (R)-2-amino-N-(1-(2-chlorobenzyl)pyrrolidin-3-yl)-5-(1-isobutyl-1H-pyrazol-4-yl)nicotinamide] | 100 to 1000 |
| CN1CCN(Cc2ccc(C(=O)N3CC[C@@H](NC(=O)c4cc(-c5cnn(C)c5)cnc4N)C3)cc2)CC1 [Example 640, (R)-2-amino-5-(1-methyl-1H-pyrazol-4-yl)-N-(1-(4-((4-methylpiperazin-1-yl)methyl)benzoyl)pyrrolidin-3-yl)nicotinamide] | > 1000 |
| Cn1cc(-c2cnc(N)c(C(=O)N[C@@H]3CCN(C(=O)c4ccc(CN5CCN(CCO)CC5)cc4)C3)c2)cn1 [Example 641, (R)-2-amino-N-(1-(4-((4-(2-hydroxyethyl)piperazin-1-yl)methyl)benzoyl)pyrrolidin-3-yl)-5-(1-methyl-1H-pyrazol-4-yl)nicotinamide] | > 1000 |
| Cn1cc(-c2cnc(N)c(C(=O)N[C@@H]3CCN(C(=O)c4ccc(-c5ccc(N)cc5)cc4)C3)c2)cn1 [Example 662, (R)-2-amino-N-(1-(4′-amino-[1,1′-biphenyl]-4-carbonyl)pyrrolidin-3-yl)-5-(1-methyl-1H-pyrazol-4-yl)nicotinamide] | > 1000 |
| Cn1cc(-c2cnc(N)c(C(=O)N[C@@H]3CCN(C(=O)c4ccc(-c5cc(F)cc(Cl)c5)cc4)C3)c2)cn1 [Example 663, (R)-2-amino-N-(1-(3′-chloro-5′-fluoro-[1,1′-biphenyl]-4-carbonyl)pyrrolidin-3-yl)-5-(1-methyl-1H-pyrazol-4-yl)nicotinamide] | 10 to 100 |
| Cn1cc(-c2cnc(N)c(C(=O)N[C@@H]3CCN(C(=O)c4ccc(-c5cc(Cl)c(F)c(Cl)c5)cc4)C3)c2)cn1 [Example 664, (R)-2-amino-N-(1-(3′,5′-dichloro-4′-fluoro-[1,1′-biphenyl]-4-carbonyl)pyrrolidin-3-yl)-5-(1-methyl-1H-pyrazol-4-yl)nicotinamide] | 100 to 1000 |
| Cn1cc(-c2cnc(N)c(C(=O)N[C@@H]3CCN(C(=O)c4ccc(-c5cc(F)ccc5Cl)cc4)C3)c2)cn1 [Example 667, (R)-2-amino-N-(1-(2′-chloro-5′-fluoro-[1,1′-biphenyl]-4-carbonyl)pyrrolidin-3-yl)-5-(1-methyl-1H-pyrazol-4-yl)nicotinamide] | 10 to 100 |

Next, values leading:

| IC50 [nM] | Structure (SMILES) |
| --- | --- |
| > 1000 | Cn1cc(-c2cnc(N)c(C(=O)N[C@@H]3CCN(C(=O)c4cccc5c(Br)cccc45)C3)c2)cn1 [Example 669, (R)-2-amino-N-(1-(5-bromo-1-naphthoyl)pyrrolidin-3-yl)-5-(1-methyl-1H-pyrazol-4-yl)nicotinamide] |
| > 1000 | CCc1cc(CO[C@H]2CN(C(=O)c3ccc(-c4ccccc4)cc3)C[C@@H]2NC(=O)c2cc(-c3cnn(C)c3)cnc2N)ccc1C [Example 674, N-((3S,4S)-1-([1,1′-biphenyl]-4-carbonyl)-4-((3-ethyl-4-methylbenzyl)oxy)pyrrolidin-3-yl)-2-amino-5-(1-methyl-1H-pyrazol-4-yl)nicotinamide] |
| > 1000 | CCc1cc(CO[C@H]2CN(C(=O)c3cccc(-c4ccccc4)c3)C[C@@H]2NC(=O)c2cc(-c3cnn(C)c3)cnc2N)ccc1C [Example 675, N-((3S,4S)-1-([1,1′-biphenyl]-3-carbonyl)-4-((3-ethyl-4-methylbenzyl)oxy)pyrrolidin-3-yl)-2-amino-5-(1-methyl-1H-pyrazol-4-yl)nicotinamide] |
| 100 to 1000 | Cn1cc(-c2cnc(N)c(C(=O)N[C@@H]3CCN(C(=O)c4ccc(-c5ccc(CC#N)cc5)cc4)C3)c2)cn1 [Example 676, (R)-2-amino-N-(1-(4′-(cyanomethyl)-[1,1′-biphenyl]-4-carbonyl)pyrrolidin-3-yl)-5-(1-methyl-1H-pyrazol-4-yl)nicotinamide] |
| 100 to 1000 | Cn1cc(-c2cnc(N)c(C(=O)N[C@@H]3CCN(C(=O)c4ccc(-c5ccc(C(N)=O)c(F)c5)cc4)C3)c2)cn1 [Example 680, (R)-2-amino-N-(1-(4′-carbamoyl-3′-fluoro-[1,1′-biphenyl]-4-carbonyl)pyrrolidin-3-yl)-5-(1-methyl-1H-pyrazol-4-yl)nicotinamide] |
